Reference: US20080139574A1, “Novel quinoline derivatives” (CADILA HEALTHCARE LIMITED, priority 2006, published 2008)
In brackets after ≈: the same amount, converted by molar mass.

How the values were obtained:
[1] = tested on: Pseudomonas aeruginosa ATCC 27853; assay: In vitro MIC, broth micro dilution; type: cell-based; details: ATCC27853
Description: (§1) The in vitro (MIC) antibacterial activity of the compounds against susceptible Gram-positive, multidrug resistant Gram-positive and Gram-negative was tested as growth inhibition with the use of broth micro dilution method according to the guidelines of Clinical and Laboratory Standards Institute (formerly National Committee for Clinical Laboratory Standards). Compounds were dissolved in DMSO and water was added to get stock solution in 80% DMSO. The working solution was prepared by diluting the stock solution 1:10 times in 4-8% DMSO in water or medium, and the dissolved compounds were evaluated in the concentrations of 0.125, 0.25, 0.5, 1, 2, 4, 8, and 16 μg/mL and the concentration was finally expressed in μM.

[2] = tested on: Klebsiella pneumoniae ATCC 700571; assay: In vitro MIC, broth micro dilution; type: cell-based; details: ATCC700571
Description: as §1

[3] = tested on: Streptococcus pneumoniae ATCC 700904; assay: In vitro MIC, broth micro dilution; type: cell-based; details: ATCC700904
Description: as §1

[4] = tested on: Streptococcus pyogens ATCC 14289; assay: In vitro MIC, broth micro dilution; type: cell-based; details: ATCC14289
Description: as §1

[5] = tested on: Staphylococcus aureus ATCC 29213; assay: In vitro MIC, broth micro dilution; type: cell-based; details: ATCC29213
Description: as §1

[6] = tested on: Enterococcus faecalis ATCC 700802; assay: In vitro MIC, broth micro dilution; type: cell-based; details: ATCC700802
Description: as §1

ATCC 700603 = assay: In vitro MIC, broth micro dilution; type: cell-based; details: ATCC700603; Staphylococcus pyogens ATCC 700603
Description: as §1

[7] = tested on: Klebsiella pneumoniae ATCC 10031; assay: In vitro MIC, broth micro dilution; type: cell-based; details: ATCC10031
Description: as §1

[8] = tested on: Enterococcus faecalis ATCC 35550; assay: In vitro MIC, broth micro dilution; type: cell-based; details: ATCC35550
Description: as §1

[9] = tested on: Bacillus cereus ATCC 11778; assay: In vitro MIC, broth micro dilution; type: cell-based; details: ATCC11778
Description: as §1

[10] = tested on: Enterococcus faecium ATCC 51559; assay: In vitro MIC, broth micro dilution; type: cell-based; details: ATCC51559
Description: as §1

[11] = tested on: Bacillus pumilis ATCC 14884; assay: In vitro MIC, broth micro dilution; type: cell-based; details: ATCC14884
Description: as §1

[12] = tested on: Staphylococcus aureus ATCC 700699; assay: In vitro MIC, broth micro dilution; type: cell-based; details: ATCC700699
Description: as §1

[13] = tested on: Staphylococcus epidermidis ATCC 155; assay: In vitro MIC, broth micro dilution; type: cell-based; details: ATCC155
Description: as §1

[14] = tested on: Staphylococcus aureus ATCC 9144; assay: In vitro MIC, broth micro dilution; type: cell-based; details: ATCC9144
Description: as §1

[15] = tested on: Staphylococcus aureus ATCC 25923; assay: In vitro MIC, broth micro dilution; type: cell-based; details: ATCC25923
Description: as §1

[16] = tested on: Enterococcus faecalis ATCC 14506; assay: In vitro MIC, broth micro dilution; type: cell-based; details: ATCC14506
Description: as §1

[17] = tested on: Enterococcus faecium ATCC 700221; assay: In vitro MIC, broth micro dilution; type: cell-based; details: ATCC700221
Description: as §1

[18] = tested on: Staphylococcus aureus ATCC 14154; assay: In vitro MIC, broth micro dilution; type: cell-based; details: ATCC14154
Description: as §1

in vivo = details: male, Sprague-Dawley, rat, po, 30 mg/kg

Row | MIC [1] [µM] | MIC [2] [µM] | MIC [3] [µM] | MIC [4] [µM] | MIC [5] [µM] | MIC [6] [µM] | MIC (ATCC 700603) [µM] | MIC [7] [µM] | MIC [8] [µM] | MIC [9] [µM] | MIC [10] [µM] | MIC [11] [µM] | MIC [12] [µM] | MIC [13] [µM] | MIC [14] [µM] | MIC [15] [µM] | MIC [16] [µM] | MIC [17] [µM] | MIC [18] [µM] | AUC (in vivo) [ng·h/mL] | SMILES | further results
1 | 3.12 (≈ 1.62 µg/mL) | 6.25 (≈ 3.25 µg/mL) | 3.12 (≈ 1.62 µg/mL) | 1.56 (≈ 0.812 µg/mL) | 3.12 (≈ 1.62 µg/mL) | 12.5 (≈ 6.49 µg/mL) | 12.5 (≈ 6.49 µg/mL) | ≤ 0.391 | 3.12 (≈ 1.62 µg/mL) | 3.12 (≈ 1.62 µg/mL) | > 50 | 1.56 (≈ 0.812 µg/mL) | > 50 | 0.781 (≈ 0.406 µg/mL) | 1.56 (≈ 0.812 µg/mL) | 1.56 (≈ 0.812 µg/mL) | 12.5 (≈ 6.49 µg/mL) | 25 (≈ 13 µg/mL) | 1.56 (≈ 0.812 µg/mL) | 85800 ± 39900 | COc1ccc2c(c1)CCC(CN1CCN(c3cc4c(cc3F)c(=O)c(C(=O)O)cn4C3CC3)CC1)C2=O (centres unmarked) [Compound 1, 1-Cyclopropyl-6-fluoro-7-[4-(6-methoxy-1-oxo-1,2,3,4-tetrahydro-naphthalen-2-ylmethyl)-piperazin-1-yl]-4-oxo-1,4-dihydro-quinoline-3-carboxylic acid] | Cmax (in vivo): 10600 ± 2610 ng/mL; Tmax (in vivo): 4 h; half-life (in vivo): 9.55 ± 2.83 h
2 | 0.781 (≈ 0.422 µg/mL) | 1.56 (≈ 0.844 µg/mL) | 3.12 (≈ 1.69 µg/mL) | 0.781 (≈ 0.422 µg/mL) | 1.56 (≈ 0.844 µg/mL) | 6.25 (≈ 3.37 µg/mL) | 12.5 (≈ 6.75 µg/mL) | ≤ 0.391 | 6.25 (≈ 3.37 µg/mL) | 1.56 (≈ 0.844 µg/mL) | 50 (≈ 27 µg/mL) | 0.781 (≈ 0.422 µg/mL) | 25 (≈ 13.5 µg/mL) | ≤ 0.391 | 0.781 (≈ 0.422 µg/mL) | 0.781 (≈ 0.422 µg/mL) | 6.25 (≈ 3.37 µg/mL) | 50 (≈ 27 µg/mL) | 1.56 (≈ 0.844 µg/mL) | 7400 ± 1780 | O=C(O)c1cn(C2CC2)c2cc(N3CCN(CC4CCOc5cc(Cl)ccc5C4=O)CC3)c(F)cc2c1=O (centres unmarked) [Compound 6, 7-[4-(8-Chloro-5-oxo-2,3,4,5-tetrahydro-benzo[b]oxepin-4-ylmethyl)-piperazin-1-yl]-1-cyclopropyl-6-fluoro-4-oxo-1,4-dihydro-quinoline-3-carboxylic acid] | Cmax (in vivo): 2360 ± 1070 ng/mL; Tmax (in vivo): 1.33 ± 0.53 h; half-life (in vivo): 1.66 ± 0.73 h
3 | 3.12 (≈ 0.998 µg/mL) | 6.25 (≈ 2 µg/mL) | 1.56 (≈ 0.499 µg/mL) | 3.12 (≈ 0.998 µg/mL) | 3.12 (≈ 0.998 µg/mL) | 25 (≈ 7.98 µg/mL) | > 50 | ≤ 0.391 | 6.25 (≈ 2 µg/mL) | 3.12 (≈ 0.998 µg/mL) | > 50 | 6.25 (≈ 2 µg/mL) | > 50 | 0.781 (≈ 0.249 µg/mL) | 1.56 (≈ 0.499 µg/mL) | 3.12 (≈ 0.998 µg/mL) | 25 (≈ 7.98 µg/mL) | > 50 | 3.12 (≈ 0.998 µg/mL) | – | CCn1cc(C(=O)O)c(=O)c2cc(F)c(N3CCNCC3)cc21 [Norfloxacin, reference compound] | –
